Experimental findings from patent publication US20210393623A1 (Jacobio Pharmaceuticals Co., Ltd., priority 2018, published 2021) are described below.

The target of this experiment is T1, SHP2 (Homo sapiens, UniProt Q06124).
T1 sequence (Q06124 1-593): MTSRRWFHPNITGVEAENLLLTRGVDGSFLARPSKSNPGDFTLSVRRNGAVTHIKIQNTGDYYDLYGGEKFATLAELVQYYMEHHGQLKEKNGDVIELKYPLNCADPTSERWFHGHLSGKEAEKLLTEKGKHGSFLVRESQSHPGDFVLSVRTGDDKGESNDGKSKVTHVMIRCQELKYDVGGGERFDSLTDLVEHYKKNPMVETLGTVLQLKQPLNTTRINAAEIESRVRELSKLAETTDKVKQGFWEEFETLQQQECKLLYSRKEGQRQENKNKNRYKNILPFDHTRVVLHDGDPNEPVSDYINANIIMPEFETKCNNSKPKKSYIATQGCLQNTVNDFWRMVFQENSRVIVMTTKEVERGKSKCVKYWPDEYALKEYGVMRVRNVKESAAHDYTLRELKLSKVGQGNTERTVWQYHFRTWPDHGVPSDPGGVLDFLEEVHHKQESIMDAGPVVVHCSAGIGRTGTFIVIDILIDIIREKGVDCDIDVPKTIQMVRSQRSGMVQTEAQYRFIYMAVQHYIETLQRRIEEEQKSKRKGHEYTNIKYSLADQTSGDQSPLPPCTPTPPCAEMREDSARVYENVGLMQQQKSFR
The experiment is described as follows: Phosphatase Assay (Single Dose Inhibition). The format is biochemical. The following applies: compound at 0.02 μM (20nM); DiFMUP substrate 12 μM; SHP2 0.5 nM activated with dPEG8 peptide; DMSO control set to 100%; triplicate. On the procedure: Phosphatase Assay (Single Dose Inhibition) Assay Protocol: For single dose inhibition assays using 6,8-difluoro-4-methylumbelliferyl phosphate (DiFMUP) as a substrate, SHP2 samples (diluted to 0.5 nM in reaction buffer) were incubated with dPEG8 peptide for 30 min in reaction buffer[60 mM 3,3-dimethyl glutarate (pH7.2), 75 mM NaCl, 75 mM KCl, and 1 mM EDTA, 0.05% Tween 20, 2mM dithiothreitol (DTT) ] to active the PTP. DMSO [0.5% (v/v)] or compounds (20nM) were added to the mixture and incubated for 30 min at room temperature. Reactions were initiated by the addition of DiFMUP (12 μM; total reaction volume of 100 μL), and the fluorescence (excitation at 340 nm, emission at 450 nm) of the resulting solutions was measured on a 2104-0020 EnVision Xcite Multilabel Reader (PerkinElmer) after 30min. The experiment is carried out in triplicate. The value for the control sample (DMSO) was set to 100%, and the values for the compound-treated samples were expressed as activity relative to the control sample.
Usually inhibition stands for the drop in the measured response relative to a control, in per cent. A higher inhibition goes with strong suppression. On to `Cc1nc(N2CCC3(CC2)Cc2ncccc2[C@H]3N)cnc1-c1cccc(Cl)c1Cl` [Example 2, (S)-1′-(5-(2,3-dichlorophenyl)-6-methylpyrazin-2-yl)-5,7-dihydrospiro[cyclopenta[b]pyridine-6,4′-piperidin]-5-amine], for which the inhibition at 0.02 µM worked out at 80%.

Molecule `Cc1nc(N2CCC3(CC2)Cc2ccccc2[C@H]3N)c(C(=O)O)nc1-c1cccc(Cl)c1Cl` [Example 3, (S)-3-(1-amino-1,3-dihydrospiro[indene-2,4′-piperidin]-1′-yl)-6-(2,3-dichlorophenyl)-5-methylpyrazine-2-carboxylic acid] gave an inhibition at 0.02 µM of 81%.

With `Cc1nc(N2CCC3(CC2)Cc2ccccc2[C@H]3N)c(C(N)=O)nc1-c1cccc(Cl)c1Cl` [Example 4, (S)-3-(1-amino-1,3-dihydrospiro[indene-2,4′-piperidin]-1′-yl)-6-(2,3-dichlorophenyl)-5-methylpyrazine-2-carboxamide], the inhibition at 0.02 µM was found to be 89%.

`CCOC(=O)c1nc(Sc2ccnc(N)c2Cl)c(C)nc1N1CCC2(CC1)Cc1ccccc1[C@H]2N` [Example 5, ethyl (S)-3-(1-amino-1,3-dihydrospiro[indene-2,4′-piperidin]-1′-yl)-6-((2-amino-3-chloropyridin-4-yl)thio)-5-methylpyrazine-2-carboxylate] returned an inhibition at 0.02 µM of 84%.

Consider `Cc1nc(N2CCC3(CC2)Cc2ccccc2[C@H]3N)cnc1Sc1ccnc(N)c1Cl` [Example 6, (S)-1′-(5-((2-amino-3-chloropyridin-4-yl)thio)-6-methylpyrazin-2-yl)-1,3-dihydrospiro[indene-2,4′-piperidin]-1-amine], for which the inhibition at 0.02 µM came out at 89%.

As to `Nc1nc(N2CCC3(CC2)Cc2ncccc2[C@H]3N)ncc1Sc1ccnc(N)c1Cl` [Example 8, (S)-1′-(4-amino-5-((2-amino-3-chloropyridin-4-yl)thio)pyrimidin-2-yl)-5,7-dihydrospiro[cyclopenta[b]pyridine-6,4′-piperidin]-5-amine], the inhibition at 0.02 µM turned out to be 68%.

For `N#Cc1cnc2c(c1)[C@@H](N)C1(CCN(c3ccc(Sc4ccnc(N)c4Cl)cn3)CC1)C2` [Example 15, (S)-5-amino-1′-(5-((2-amino-3-chloropyridin-4-yl)thio)pyridin-2-yl)-5,7-dihydrospiro[cyclopenta[b]pyridine-6,4′-piperidine]-3-carbonitrile], the inhibition at 0.02 µM turned out to be 64%.

In turn, `COc1nccc(Sc2cnc(N3CCC4(CC3)Cc3ccc(SC)cc3[C@H]4N)cn2)c1Cl` [Example 19, (S)-1′-(5-((3-chloro-2-methoxypyridin-4-yl)thio)pyrazin-2-yl)-6-(methylthio)-1,3-dihydrospiro[indene-2,4′-piperidin]-1-amine] came in with an inhibition at 0.02 µM of 61%.

`CC(C)Nc1nccc(Sc2cnc(N3CCC4(CC3)Cc3ccc(S(C)(=O)=O)cc3[C@H]4N)cn2)c1Cl` [Example 21, (S)-1′-(5-((3-chloro-2-(isopropylamino)pyridin-4-yl)thio)pyrazin-2-yl)-6-(methylsulfonyl)-1,3-dihydrospiro[indene-2,4′-piperidin]-1-amine] came in with an inhibition at 0.02 µM of 68%.

For `Cc1nc(N2CCC3(CC2)Cc2ccccc2[C@H]3N)c(CO)nc1-c1cccc(Cl)c1Cl` [Example 23, (S)-(3-(1-amino-1,3-dihydrospiro[indene-2,4′-piperidin]-1′-yl)-6-(2,3-dichlorophenyl)-5-methylpyrazin-2-yl)methanol], testing at 0.02 µM gave an inhibition of 85%.

On to `Cc1nc(N2CCC3(CC2)Cc2ccccc2[C@H]3N)c(CO)nc1Sc1ccnc(N)c1Cl` [Example 24, (S)-(3-(1-amino-1,3-dihydrospiro[indene-2,4′-piperidin]-1′-yl)-6-((2-amino-3-chloropyridin-4-yl)thio)-5-methylpyrazin-2-yl)methanol], for which the inhibition at 0.02 µM turned out to be 87%.

The molecule `Cc1nc(N2CCC3(CC2)Cc2ncccc2[C@H]3N)c(Br)nc1-c1cccc(Cl)c1Cl` [Example 25, (S)-1′-(3-bromo-5-(2,3-dichlorophenyl)-6-methylpyrazin-2-yl)-5,7-dihydrospiro[cyclopenta[b]pyridine-6,4′-piperidin]-5-amine] displayed an inhibition at 0.02 µM of 78%.

`Cc1nc(N2CCC3(CC2)Cc2ncccc2[C@H]3N)c(C#N)nc1-c1cccc(Cl)c1Cl` [Example 26, (S)-3-(5-amino-5,7-dihydrospiro[cyclopenta[b]pyridine-6,4′-piperidin]-1′-yl)-6-(2,3-dichlorophenyl)-5-methylpyrazine-2-carbonitrile] gave an inhibition at 0.02 µM of 67%.

Take `Cc1nc(N2CCC3(CC2)Cc2ncccc2[C@H]3N)c(C(N)=O)nc1-c1cccc(Cl)c1Cl` [Example 27, (S)-3-(5-amino-5,7-dihydrospiro[cyclopenta[b]pyridine-6,4′-piperidin]-1′-yl)-6-(2,3-dichlorophenyl)-5-methylpyrazine-2-carboxamide]: testing at 0.02 µM gave an inhibition of 79%.

Consider `Cc1nc(N2CCC3(CC2)Cc2ncccc2[C@H]3N)c(O)nc1-c1cccc(Cl)c1Cl` [Example 28, (S)-3-(5-amino-5,7-dihydrospiro[cyclopenta[b]pyridine-6,4′-piperidin]-1′-yl)-6-(2,3-dichlorophenyl)-5-methylpyrazin-2-ol], for which the inhibition at 0.02 µM worked out at 74%.

In turn, `Nc1nc(N2CCC3(CC2)Cc2ncccc2[C@H]3N)c(Br)nc1Sc1cccc(Cl)c1Cl` [Example 29, (S)-1′-(6-amino-3-bromo-5-((2,3-dichlorophenyl)thio)pyrazin-2-yl)-5,7-dihydrospiro[cyclopenta[b]pyridine-6,4′-piperidin]-5-amine] yielded an inhibition at 0.02 µM of 68%.

Molecule `N#Cc1nc(Sc2cccc(Cl)c2Cl)c(N)nc1N1CCC2(CC1)Cc1ncccc1[C@H]2N` [Example 30, (S)-5-amino-3-(5-amino-5,7-dihydrospiro[cyclopenta[b]pyridine-6,4′-piperidin]-1′-yl)-6-((2,3-dichlorophenyl)thio)pyrazine-2-carbonitrile] came in with an inhibition at 0.02 µM of 80%.

`NC(=O)c1nc(Sc2cccc(Cl)c2Cl)c(N)nc1N1CCC2(CC1)Cc1ncccc1[C@H]2N` [Example 31, (S)-5-amino-3-(5-amino-5,7-dihydrospiro[cyclopenta[b]pyridine-6,4′-piperidin]-1′-yl)-6-((2,3-dichlorophenyl)thio)pyrazine-2-carboxamide]: the inhibition at 0.02 µM worked out at 82%.

In turn, `Nc1nc(N2CCC3(CC2)Cc2ncccc2[C@H]3N)ccc1Sc1ccnc(N)c1Cl` [Example 32, (S)-1′-(6-amino-5-((2-amino-3-chloropyridin-4-yl)thio)pyridin-2-yl)-5,7-dihydrospiro[cyclopenta[b]pyridine-6,4′-piperidin]-5-amine] came in with an inhibition at 0.02 µM of 75%.

Turning to `Nc1nccc(Sc2ccc(N3CCC4(CC3)Cc3ncccc3[C@H]4N)cn2)c1Cl` [Example 33, (S)-1′-(6-((2-amino-3-chloropyridin-4-yl)thio)pyridin-3-yl)-5,7-dihydrospiro[cyclopenta[b]pyridine-6,4′-piperidin]-5-amine], the inhibition at 0.02 µM is 70%.

Regarding `Cn1c(N2CCC3(CC2)Cc2ncccc2[C@H]3N)nc2[nH]nc(-c3cccc(Cl)c3Cl)c2c1=O` [Example 36, (S)-6-(5-amino-5,7-dihydrospiro[cyclopenta[b]pyridine-6,4′-piperidin]-1′-yl)-3-(2,3-dichlorophenyl)-5-methyl-1,5-dihydro-4H-pyrazolo[3,4-d]pyrimidin-4-one], 0.02 µM produced 88% inhibition.

Molecule `Cn1c(N2CCC3(CC2)Cc2ccc(F)cc2[C@H]3N)nc2[nH]nc(-c3cccc(Cl)c3Cl)c2c1=O` [Example 37, (S)-6-(1-amino-6-fluoro-1,3-dihydrospiro[indene-2,4′-piperidin]-1′-yl)-3-(2,3-dichlorophenyl)-5-methyl-1,5-dihydro-4H-pyrazolo[3,4-d]pyrimidin-4-one] showed an inhibition at 0.02 µM of 68%.

`Cc1ccc(-c2n[nH]c3nc(N4CCC5(CC4)Cc4cc(F)c(F)c(F)c4[C@H]5N)n(C)c(=O)c23)s1` [Example 38, (S)-6-(1-amino-5,6,7-trifluoro-1,3-dihydrospiro[indene-2,4′-piperidin]-1′-yl)-5-methyl-3-(5-methylthiophen-2-yl)-1,5-dihydro-4H-pyrazolo[3,4-d]pyrimidin-4-one] came in with an inhibition at 0.02 µM of 53%.

As to `N[C@@H]1c2cccnc2CC12CCN(c1nc3[nH]cc(-c4cccc(Cl)c4Cl)c3c(=O)[nH]1)CC2` [Example 39, (S)-2-(5-amino-5,7-dihydrospiro[cyclopenta[b]pyridine-6,4′-piperidin]-1′-yl)-5-(2,3-dichlorophenyl)-3,7-dihydro-4H-pyrrolo[2,3-d]pyrimidin-4-one], testing at 0.02 µM gave an inhibition of 78%.
